Source: US9284333B2, “Fused pyrroledicarboxamides and their use as pharmaceuticals” (SANOFI, priority 2012, dated 2016)

molecular target: Human TASK-1 channels (Homo sapiens (Human), UniProt O14649); assay: Determination of the activity on the TASK-1 channel in Xenopus oocytes (two-microelectrode voltage clamp); format: cell-based; conditions: compound concentration 5 μM
Summary of the method: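 Xenopus oocytes were injected with human TASK-1 cRNA and recorded two days later by two-microelectrode voltage clamp, holding at −90 mV with 500 ms steps to 40 mV. Superfusion used ND96, pH 7.4, at room temperature, with rising compound concentrations; percentage inhibition of control current was fitted to a dose-response curve for IC50.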

Sequence of Human TASK-1 channels (O14649 whole entry, the tested form may be a part): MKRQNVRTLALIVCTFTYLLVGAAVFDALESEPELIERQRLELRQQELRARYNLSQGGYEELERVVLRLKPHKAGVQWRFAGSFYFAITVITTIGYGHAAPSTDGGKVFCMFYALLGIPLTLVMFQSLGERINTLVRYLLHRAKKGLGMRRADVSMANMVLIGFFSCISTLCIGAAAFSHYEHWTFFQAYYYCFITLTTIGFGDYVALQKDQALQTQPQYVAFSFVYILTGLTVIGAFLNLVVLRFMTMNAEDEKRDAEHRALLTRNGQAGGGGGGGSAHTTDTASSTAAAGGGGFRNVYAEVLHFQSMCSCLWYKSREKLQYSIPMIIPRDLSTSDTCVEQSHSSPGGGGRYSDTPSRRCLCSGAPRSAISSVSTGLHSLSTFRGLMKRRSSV

For `CC[C@@H](NC(=O)c1cc(C(=O)N2CCC[C@@H]2c2ccc(C(F)(F)F)nc2)n2c1COCC2)c1ccccc1` [16ga, 6-[(R)-2-(6-Trifluoromethyl-pyridin-3-yl)-pyrrolidine-1-carbonyl]-3,4-dihydro-1H-pyrrolo[2,1-c][1,4]oxazine-8-carboxylic acid ((R)-1-phenyl-propyl)-amide], the inhibition at 5 µM was 67%.

same assay, conditions: human TASK-1 expressed in Xenopus oocytes, room temperature; read-out: IC50 value for TASK-1 inhibition

Going from `CC[C@H](NC(=O)c1cc(C(=O)N[C@H](C)c2ccc(F)cc2)n2c1COCC2)c1ncccn1` [16h, 3,4-Dihydro-1H-pyrrolo[2,1-c][1,4]oxazine-6,8-dicarboxylic acid 6-{[(R)-1-(4-fluoro-phenyl)-ethyl]-amide} 8-[((S)-1-pyrimidin-2-yl-propyl)amide]] to `CC[C@@H](NC(=O)c1cc(C(=O)NC(C)c2ncccn2)c2n1CCOC2)c1ccccc1` (mixture of isomers) [16ka, 3,4-Dihydro-1H-pyrrolo[2,1-c][1,4]oxazine-6,8-dicarboxylic acid 6-[((R)-1-phenyl-propyl)-amide] 8-[(1-pyrimidin-2-yl-ethyl)-amide]], the IC50 rises from 240 nM to 460 nM (1.9-fold).

Going from `CC[C@@H](NC(=O)c1cc(C(=O)N[C@H](C)c2ccc(F)cc2)n2c1COCC2)c1ccc(C(F)(F)F)nc1` [16g, 3,4-Dihydro-1H-pyrrolo[2,1-c][1,4]oxazine-6,8-dicarboxylic acid 6-{[(R)-1-(4-fluoro-phenyl)-ethyl]-amide} 8-{[(R)-1-(6-trifluoromethyl-pyridin-3-yl)-propyl]-amide}] to `CC[C@@H](NC(=O)c1cc(C(=O)N[C@H](CC)c2ncccn2)c2n1CCOC2)c1ccc(C(F)(F)F)cc1` [16lb, 3,4-Dihydro-1H-pyrrolo[2,1-c][1,4]oxazine-6,8-dicarboxylic acid 8-[((R)-1-pyrimidin-2-yl-propyl)-amide] 6-{[(R)-1-(4-trifluoromethyl-phenyl)-propyl]-amide}], the IC50 falls from 290 nM to 65 nM (4.5-fold).

First: C[C@@H](NC(=O)c1cc(C(=O)N2CCC[C@@H]2C(F)(F)F)c2n1CCOC2)c1ccc(F)cc1 [16dk, 8-((R)-2-Trifluoromethyl-pyrrolidine-1-carbonyl)-3,4-dihydro-1H-pyrrolo[2,1-c][1,4]oxazine-6-carboxylic acid [(R)-1-(4-fluoro-phenyl)-ethyl]-amide]
Second: CC[C@@H](NC(=O)c1cc(C(=O)N2CCC[C@@H]2C)n2c1COCC2)c1ccc(SC(F)(F)F)cc1 [16ax, 6-((S)-2-Methyl-pyrrolidine-1-carbonyl)-3,4-dihydro-1H-pyrrolo[2,1-c][1,4]oxazine-8-carboxylic acid [(R)-1-(4-trifluoromethylsulfanyl-phenyl)-propyl]-amide]
The IC50 of the first is 2.2-fold lower: 160 nM for the first, 350 nM for the second. The first is the more potent here.

First: CC[C@@H](NC(=O)c1cc(C(=O)N2CCC[C@H]2C(C)C)c2n1CCOC2)c1ccccc1 [16km, 8-((S)-2-Isopropyl-pyrrolidine-1-carbonyl)-3,4-dihydro-1H-pyrrolo[2,1-c][1,4]oxazine-6-carboxylic acid ((R)-1-phenyl-propyl)-amide]
Second: CC[C@@H](NC(=O)c1cc(C(=O)N2CCC[C@@H]2C)n2c1COCC2)c1ccccc1 [16a, 6-((S)-2-Methyl-pyrrolidine-1-carbonyl)-3,4-dihydro-1H-pyrrolo[2,1-c][1,4]oxazine-8-carboxylic acid ((R)-1-phenyl-propyl)-amide]
The IC50 of the first is 5.7-fold higher: 390 nM for the first, 69 nM for the second. The second is the more potent here.

Going from `CCOC(=O)[C@H](NC(=O)c1cc(C(=O)N[C@H](CC)c2ccccc2)c2n1CCOC2)c1ccccc1` [16hq, (R)-Phenyl-{[8-((R)-1-phenyl-propylcarbamoyl)-3,4-dihydro-1H-pyrrolo[2,1-c][1,4]oxazine-6-carbonyl]-amino}-acetic acid ethyl ester] to `CC[C@@H](NC(=O)c1cc(C(=O)NCCc2ccccn2)n2c1COCC2)c1ccccc1` [16gm, 3,4-Dihydro-1H-pyrrolo[2,1-c][1,4]oxazine-6,8-dicarboxylic acid 8-[((R)-1-phenyl-propyl)-amide] 6-[(2-pyridin-2-yl-ethyl)-amide]], the IC50 rises from 320 nM to 490 nM (1.5-fold).

Going from `CC[C@@H](NC(=O)c1cc(C(=O)N2CCC[C@@H]2C)c2n1CCOC2)c1ccc(C#N)nc1` [16nj, 8-((S)-2-Methyl-pyrrolidine-1-carbonyl)-3,4-dihydro-1H-pyrrolo[2,1-c][1,4]oxazine-6-carboxylic acid [(R)-1-(6-cyano-pyridin-3-yl)-propyl]-amide] to `CC(C)[C@@H](NC(=O)c1cc(C(=O)N2CCC[C@@H]2C)n2c1COCC2)c1ccc(C#N)nc1` [16am, 6-((S)-2-Methyl-pyrrolidine-1-carbonyl)-3,4-dihydro-1H-pyrrolo[2,1-c][1,4]oxazine-8-carboxylic acid [(R)-1-(6-cyano-pyridin-3-yl)-2-methyl-propyl]-amide], the IC50 falls from 2000 nM to 920 nM (2.2-fold). The second is the more potent here.

Compared with `CC[C@@H](NC(=O)c1cc(C(=O)NCc2cnccn2)n2c1C(C)OCC2)c1ccccc1` (stereo partly drawn) [16li, 1-Methyl-3,4-dihydro-1H-pyrrolo[2,1-c][1,4]oxazine-6,8-dicarboxylic acid 8-[((R)-1-phenyl-propyl)-amide] 6-[(pyrazin-2-ylmethyl)-amide]], `CC[C@@H](NC(=O)c1cc(C(=O)NCc2nccs2)c2n1CCOC2)c1ccccc1` [16jt, 3,4-Dihydro-1H-pyrrolo[2,1-c][1,4]oxazine-6,8-dicarboxylic acid 6-[((R)-1-phenyl-propyl)-amide] 8-[(thiazol-2-ylmethyl)-amide]] is 6-fold lower in IC50: 900 nM for the first, 150 nM for the second. The second is the more potent here.

First: CC[C@@H](NC(=O)c1cc(C(=O)NCC(C)(C)O)n2c1COCC2)c1ccccc1 [16jd, 3,4-Dihydro-1H-pyrrolo[2,1-c][1,4]oxazine-6,8-dicarboxylic acid 6-[(2-hydroxy-2-methyl-propyl)-amide] 8-[((R)-1-phenyl-propyl)-amide]]
Second: CC[C@@H](NC(=O)c1cc(C(=O)NCc2c(C)noc2C)n2c1COCC2)c1ccccc1 [16pq, 3,4-Dihydro-1H-pyrrolo[2,1-c][1,4]oxazine-6,8-dicarboxylic acid 6-[(3,5-dimethyl-isoxazol-4-ylmethyl)-amide] 8-[((R)-1-phenyl-propyl)-amide]]
The IC50 of the first is 3.8-fold higher: 2500 nM for the first, 650 nM for the second.

`C[C@H]1CCCN1C(=O)c1cc(C(=O)NCc2ccc(F)cc2Cl)c2n1CCOC2` [16x, 6-((S)-2-Methyl-pyrrolidine-1-carbonyl)-3,4-dihydro-1H-pyrrolo[2,1-c][1,4]oxazine-8-carboxylic acid 2-chloro-4-fluoro-benzylamide] and `CC[C@@H](NC(=O)c1cc(C(=O)N2CCC[C@@H]2C)n2c1COCC2)c1c(F)cc(C#N)cc1F` [16ba, 6-((S)-2-Methyl-pyrrolidine-1-carbonyl)-3,4-dihydro-1H-pyrrolo[2,1-c][1,4]oxazine-8-carboxylic acid [(R)-1-(4-cyano-2,6-difluoro-phenyl)-propyl]-amide] are within 1.5-fold of each other in IC50: 190 nM for the first, 140 nM for the second.

Compared with `CC[C@@H](NC(=O)c1cc(C(=O)N2CCCC2)n2c1COCC2)c1ccccc1Cl` [16cy, 6-(Pyrrolidine-1-carbonyl)-3,4-dihydro-1H-pyrrolo[2,1-c][1,4]oxazine-8-carboxylic acid [(R)-1-(2-chloro-phenyl)-propyl]-amide], `CC[C@@H](NC(=O)c1cc(C(=O)N2CC[C@H](F)C2)n2c1CCCC2)c1ccccc1` [16mk, 3-((S)-3-Fluoro-pyrrolidine-1-carbonyl)-5,6,7,8-tetrahydro-indolizine-1-carboxylic acid ((R)-1-phenyl-propyl)-amide] is 2.6-fold higher in IC50: 210 nM for the first, 550 nM for the second.

`CC[C@@H](NC(=O)c1cc(C(=O)NC(C)c2cnc(OC)cn2)n2c1COCC2)c1ccccc1` (stereo partly drawn) [16iv, 3,4-Dihydro-1H-pyrrolo[2,1-c][1,4]oxazine-6,8-dicarboxylic acid 6-{[1-(5-methoxy-pyrazin-2-yl)-ethyl]-amide} 8-[((R)-1-phenyl-propyl)-amide]] and `CCOC(=O)C[C@H]1CCCN1C(=O)c1cc(C(=O)N[C@H](CC)c2ccccc2)c2n1CCOC2` [16fi, {(R)-1-[8-((R)-1-Phenyl-propylcarbamoyl)-3,4-dihydro-1H-pyrrolo[2,1-c][1,4]oxazine-6-carbonyl]-pyrrolidin-2-yl}-acetic acid ethyl ester] are within 1.5-fold of each other in IC50: 120 nM for the first, 130 nM for the second.

In the case of `C[C@H]1CCCN1C(=O)c1cc(C(=O)N[C@@H]2CCc3nc(C(F)(F)F)ccc32)c2n1CCOC2` (racemic) [16cv, 6-((S)-2-Methyl-pyrrolidine-1-carbonyl)-3,4-dihydro-1H-pyrrolo[2,1-c][1,4]oxazine-8-carboxylic acid ((R)-2-trifluoromethyl-6,7-dihydro-5H-[1]pyrindin-5-yl)-amide], the IC50 is reported as 900 nM.

test system: atrium of the anesthetized pig; assay: Investigation of the refractory period and the left-atrial vulnerability in the anesthetized pig; format: in vivo; conditions: Sus scrofa, iv, 0.1 mg/kg i.v. infusion over 1 h
Method: Investigation of the Refractory Period and the Left-Atrial Vulnerability in the Pig
The compounds were tested for prolongation of the refractory period and antiarrhythmic activity on the atrium of the anesthetized pig as described in Knobloch K. et al., Naunyn-Schmiedeberg's Arch. Pharmacol. 2002, 366, 482-487. Here the anti-arrhythmic action relates to the inhibition of the occurrence of episodes of atrial arrhythmias which are induced by a prematurely placed extra-stimulus (S2) in the left atrium (=left-atrial vulnerability). The prolongation of the refractory period (refractoriness) is expressed as the increase in percent of the value of the refractory period 15 min after the end of administration of the test compound vs. the basal value before administration. Mean values of the prolongation of the refractory period are shown from three rates (150/min, 200/min and 250/min). The values for the inhibition of left atrial vulnerability (inhibition of episodes of arrhythmias) in percent refer to three measurements (three time points) before administration of the test compound vs. at least three measurements during the first hour after administration.
In Table 16, the action of compounds of the formula I from the examples above on the refractory period of the left atrium and their antiarrhythmic activity in the anesthetized pig after intravenous (i.v.) administration of the described dose is shown.

Compound `CC[C@H](NC(=O)c1cc(C(=O)N[C@H](C)c2ccc(F)cc2)n2c1COCC2)c1ncccn1` [16h, 3,4-Dihydro-1H-pyrrolo[2,1-c][1,4]oxazine-6,8-dicarboxylic acid 6-{[(R)-1-(4-fluoro-phenyl)-ethyl]-amide} 8-[((S)-1-pyrimidin-2-yl-propyl)amide]] has an inhibition in vivo at 0.1 mg/kg of 97%.

same assay, conditions: Sus scrofa, iv, 0.3 mg/kg i.v. bolus injection

`CC[C@@H](NC(=O)c1cc(C(=O)N[C@H](C)c2ccc(F)cc2)n2c1COCC2)c1ccc(C(F)(F)F)nc1` [16g, 3,4-Dihydro-1H-pyrrolo[2,1-c][1,4]oxazine-6,8-dicarboxylic acid 6-{[(R)-1-(4-fluoro-phenyl)-ethyl]-amide} 8-{[(R)-1-(6-trifluoromethyl-pyridin-3-yl)-propyl]-amide}] gave an inhibition in vivo at 0.3 mg/kg of 100%.

same assay, conditions: Sus scrofa, iv, 0.25 h, 0.1 mg/kg i.v. infusion over 1 h, read-out: % Prolongation of left atrial refractory period

`CC[C@H](NC(=O)c1cc(C(=O)N[C@H](C)c2ccc(F)cc2)n2c1COCC2)c1ncccn1` [16h, 3,4-Dihydro-1H-pyrrolo[2,1-c][1,4]oxazine-6,8-dicarboxylic acid 6-{[(R)-1-(4-fluoro-phenyl)-ethyl]-amide} 8-[((S)-1-pyrimidin-2-yl-propyl)amide]] was tested, and the change in vivo at 0.1 mg/kg was 42%.

same assay, conditions: Sus scrofa, iv, 0.25 h, 0.3 mg/kg i.v. bolus injection, 15 min after administration vs basal, mean of three rates, read-out: % Prolongation of left atrial refractory period

`CC[C@@H](NC(=O)c1cc(C(=O)N[C@H](C)c2ccc(F)cc2)n2c1COCC2)c1ccc(C(F)(F)F)nc1` [16g, 3,4-Dihydro-1H-pyrrolo[2,1-c][1,4]oxazine-6,8-dicarboxylic acid 6-{[(R)-1-(4-fluoro-phenyl)-ethyl]-amide} 8-{[(R)-1-(6-trifluoromethyl-pyridin-3-yl)-propyl]-amide}] gave a change in vivo at 0.3 mg/kg of 19%.
